The subject of data set [1] is rat tracheal rings. Nature of the data set: LTD4-induced contraction of isolated rat tracheal rings. The data set is classed as cell-based. The source says: . The thoracic cavity was exposed, the neck was dissected, and the trachea was removed 1 mm above the tracheal bifurcation and 1 mm below the thyroid cartilage. The sample was submerged in cold Krebs-Henseleit solution bubbled with 95% 02 and 5% CO2, and 3 mm-thick rings were cut. Each ring was placed in an isolated organ chamber, with its bottom anchored by means of a stainless-steel hook and another hook connected to a tension transducer. The chamber was then filled with Krebs-Henseleit solution at 36° C. bubbled with 95% 02 and 5% CO2, pH 7.4±0.5. Two washes were performed, and a 1.5 g load was applied to each ring and were left to rest for 60 minutes. […]
(§1) The antagonist's effects to their own agonists were analyzed using dose-response curves of the agonists in tracheal rings incubated with different antagonists' concentrations. […]
(§2) The half maximal effective concentration (EC50) of each dose-response curve of the analyzed agonists was obtained using the sigmoid model, wherein: y=a+(b−a)/(1+10^(logx0-x)*x p)). […]
(§3) Data are presented as mean±standard deviation of 2 rings obtained from each of the tracheas of 5 rats. Data were analyzed with the one-way ANOVA test with a Dunett's post-test. EC50's were determined by means of the sigmoid model and the 40 percent of effects was obtained using a linear regression. The t and T values were determined based on a t-values table.

Data set [2] deals with rat tracheal rings. In words: Histamine-induced contraction of isolated rat tracheal rings. The data set is classed as cell-based.
Source text: Male Wistar rats 300-350 g were sacrificed with a phenobarbital sodium overdose given by intraperitoneal route. The thoracic cavity was exposed, the neck was dissected, and the trachea was removed 1 mm above the tracheal bifurcation and 1 mm below the thyroid cartilage. The sample was submerged in cold Krebs-Henseleit solution bubbled with 95% 02 and 5% CO2, and 3 mm-thick rings were cut. Each ring was placed in an isolated organ chamber, with its bottom anchored by means of a stainless-steel hook and another hook connected to a tension transducer. The chamber was then filled with Krebs-Henseleit solution at 36° C. bubbled with 95% 02 and 5% CO2, pH 7.4±0.5. […]
as §1, §2, §3

The conditions of data set [3]: cited from earlier work; for bioavailability / time to maximum plasma concentration: oral administration.
The conditions of data set [4]: cited from earlier work.

This is an account of results in US20220031687A1, “SYNERGIC PHARMACEUTICAL COMBINATION OF A LEUKOTRIENE-RECEPTOR ANTAGONIST AND AN INVERSE AGONIST OF HISTAMINE HI” (priority 2018, published 2022).

For the compound `CCCCC/C=C\C\C=C/C=C/C=C/[C@@H](SC[C@H](N)C(=O)NCC(=O)O)[C@@H](O)CCCC(=O)O` [LTD4, leukotriene D4], in the data set on rat tracheal rings [1] (cumulative administration, normalised to acetylcholine 0.1 mM = 100%, read-out: EC50 of concentration-dependent contraction of rat tracheal rings), the EC50 amounted to 42.6 nM.
With `NCCc1c[nH]cn1` [histamine, 2-(4-imidazol) ethylamine], in the data set with rat tracheal rings [2] (Rattus norvegicus, cumulative administration, normalised to acetylcholine 0.1 mM = 100%, read-out: EC50 of concentration-dependent contraction of rat tracheal rings), the EC50 is 3540 nM.
As for `CN1CCC(=C2c3ccccc3CC(=O)c3sccc32)CC1` [ketotifen, 4,9-Dihydro-4-(1-methyl-4-piperidylidene)-10H-benzo(4,5)cyclohepta[1,2-b]thiophen-10-one], in the data set with rat tracheal rings [2] (100 μM ketotifen), the “blocking of the contraction induced by the highest histamine concentration” value worked out at 65%. In data set [3] (first 48 hours), the “excreted in urine as metabolites” value is on record as 60 to 70% and the “excreted unaltered in urine” value is reported as “Approximately 1%”. For the same compound, the “first pass effect of the liver metabolism” value in data set [3] (glucuronidation and demethylation) is “approximately 50%”. In data set [3] (in vivo), the “long half-life (biphasic elimination)” value is 21 h, the “short half-life (biphasic elimination)” value was 3 to 5 h and the therapeutic plasma concentrations is 1 to 4 µg/mL. In data set [3], the bioavailability result was “approximately 50%” and the “time to maximum plasma concentration” value is 2 to 4 h. Also, the fecal excretion in data set [3] (up to) is given as 30 to 40%. Besides, the plasma protein binding in data set [4] is reported as 75%.
Consider `CC(C)(O)c1ccccc1CC[C@@H](SCC1(CC(=O)O)CC1)c1cccc(/C=C/c2ccc3ccc(Cl)cc3n2)c1` [montelukast, 1-[[[(1R)-1-[3-[(1E)-2-(7-chloro-2-quinolinyl)ethenyl]phenyl]-3-[2-(1-hydroxy-1-methylethyl)phenyl]propyl]thio]methyl] cyclopropaneacetic acid], for which the “blocking of the contraction induced by the highest LTD4 concentration” value in the data set on rat tracheal rings [1] (30 μM montelukast) is 75%. Further, the biological half-life in data set [3] (in vivo) is 2.7-5.5 hours. For the same compound, in data set [3], the bioavailability is listed as 64% and the “time to maximum plasma concentration” value is 2 to 4 h. In data set [4], the plasma protein binding was 99%.
